Values of other authors in patent US20260335339A1, “COMPOSITIONS FOR DERMAL/TRANSDERMAL DELIVERY AND COSMETIC USE” (YISSUM RESEARCH DEVELOPMENT COMPANY OF THE HEBREW …, priority 2022, published 2026).

Details: lipophilic fluorescent molecule

Compound: O=C1OC2(c3ccc(O)cc3Oc3cc(O)ccc32)c2ccc(N=C=S)cc21 [FITC, fluorescein isothiocyanate]
- log p: 4.3
